Literature values in patent US11147270B2, “Pesticide based on formation of formate anion in situ” (priority 2018, dated 2021).

Conditions: at 20° C.

## Cl [hydrochloric acid]
  vapor pressure: approximately 32452 mmHg
